This is an account of results in ChEMBL document CHEMBL1139500, “The next generation of phosphodiesterase inhibitors: structural clues to ligand and substrate selectivity of phosphodiesterases” (J Med Chem, 2005).

The Ki is a dissociation constant, usually derived from enzyme kinetics or from competition with a known ligand. A low value points to tighter binding. The term IC50 denotes the midpoint of a concentration-inhibition curve. Low readings indicate higher potency, high ones lower potency.

Structures are written as SMILES.

The target of experiment [1] is T1, Phosphodiesterase 7 (Homo sapiens, UniProt Q13946+Q9NP56). Nature of the experiment: (§1) Inhibition of human phosphodiesterase 7. In kind it is protein assay.
The next experiment deals with Phosphodiesterase 6. Nature of the experiment: Inhibition of human phosphodiesterase 6. In kind it is protein assay.
Experiment [2] concerns the target T1, Phosphodiesterase 7. Described as §1. The experiment is classed as protein assay. The source holds these as a separate data set.
A short description of experiment [3]: Inhibitory activity against phosphodiesterase 8.
Experiment [4] addresses cGMP-dependent 3',5'-cyclic phosphodiesterase (Homo sapiens, UniProt O00408). Briefly: Inhibition of human phosphodiesterase 2.
The next experiment has as its target Phosphodiesterase 1 (Homo sapiens, UniProt P54750+Q01064+Q14123). Briefly: Inhibition of human phosphodiesterase 1. In kind it is protein assay.
For experiment [5], the target named is High affinity cGMP-specific 3',5'-cyclic phosphodiesterase 9A (Homo sapiens, UniProt O76083). Briefly: Inhibition of human phosphodiesterase 9.
The target in experiment [6] is cAMP and cAMP-inhibited cGMP 3',5'-cyclic phosphodiesterase 10A (Homo sapiens, UniProt Q9Y233). Briefly: Inhibitory concentration value against phosphodiesterase 10.
Chain of cAMP and cAMP-inhibited cGMP 3',5'-cyclic phosphodiesterase 10A (Q9Y233 whole entry): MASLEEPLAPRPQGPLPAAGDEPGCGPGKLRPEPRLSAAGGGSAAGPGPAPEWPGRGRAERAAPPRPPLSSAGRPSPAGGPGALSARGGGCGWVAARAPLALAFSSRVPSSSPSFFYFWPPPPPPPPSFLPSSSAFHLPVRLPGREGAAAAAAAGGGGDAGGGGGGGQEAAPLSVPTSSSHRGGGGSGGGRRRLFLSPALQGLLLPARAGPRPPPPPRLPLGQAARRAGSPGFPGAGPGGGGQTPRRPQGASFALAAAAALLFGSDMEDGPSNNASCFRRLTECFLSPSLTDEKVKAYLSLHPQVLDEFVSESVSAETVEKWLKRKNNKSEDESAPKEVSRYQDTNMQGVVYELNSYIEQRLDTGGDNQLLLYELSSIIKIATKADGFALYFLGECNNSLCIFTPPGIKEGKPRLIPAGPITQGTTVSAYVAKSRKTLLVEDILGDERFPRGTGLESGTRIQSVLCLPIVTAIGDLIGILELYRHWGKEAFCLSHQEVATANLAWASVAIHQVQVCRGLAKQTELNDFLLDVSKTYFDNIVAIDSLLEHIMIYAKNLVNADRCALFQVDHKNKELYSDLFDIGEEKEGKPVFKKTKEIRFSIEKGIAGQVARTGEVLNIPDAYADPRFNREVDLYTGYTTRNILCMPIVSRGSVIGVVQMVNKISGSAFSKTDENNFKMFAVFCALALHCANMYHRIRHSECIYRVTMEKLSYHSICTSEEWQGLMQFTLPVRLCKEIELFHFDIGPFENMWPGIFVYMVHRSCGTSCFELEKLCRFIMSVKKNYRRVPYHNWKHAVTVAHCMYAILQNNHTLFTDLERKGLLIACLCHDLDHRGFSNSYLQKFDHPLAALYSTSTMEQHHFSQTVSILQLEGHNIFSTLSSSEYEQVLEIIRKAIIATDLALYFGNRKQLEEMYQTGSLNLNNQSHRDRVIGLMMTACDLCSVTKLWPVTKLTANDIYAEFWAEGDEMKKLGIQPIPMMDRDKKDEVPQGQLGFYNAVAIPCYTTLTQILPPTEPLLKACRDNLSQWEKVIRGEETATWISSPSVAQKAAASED

T1 sequence (Q13946 whole entry, looked up): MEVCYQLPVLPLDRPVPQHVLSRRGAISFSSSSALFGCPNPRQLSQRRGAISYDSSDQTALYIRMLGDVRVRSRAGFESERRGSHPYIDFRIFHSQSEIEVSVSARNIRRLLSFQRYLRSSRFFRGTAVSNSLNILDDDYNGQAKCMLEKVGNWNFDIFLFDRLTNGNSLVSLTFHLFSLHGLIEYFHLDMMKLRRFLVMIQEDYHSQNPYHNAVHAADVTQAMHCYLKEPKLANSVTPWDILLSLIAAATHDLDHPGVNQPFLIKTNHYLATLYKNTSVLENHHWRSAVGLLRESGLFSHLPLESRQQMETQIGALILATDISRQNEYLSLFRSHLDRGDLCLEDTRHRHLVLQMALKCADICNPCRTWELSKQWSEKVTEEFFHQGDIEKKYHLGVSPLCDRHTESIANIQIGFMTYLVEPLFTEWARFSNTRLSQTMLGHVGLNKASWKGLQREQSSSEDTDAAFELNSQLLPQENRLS
T1 sequence (Q9NP56 whole entry, looked up): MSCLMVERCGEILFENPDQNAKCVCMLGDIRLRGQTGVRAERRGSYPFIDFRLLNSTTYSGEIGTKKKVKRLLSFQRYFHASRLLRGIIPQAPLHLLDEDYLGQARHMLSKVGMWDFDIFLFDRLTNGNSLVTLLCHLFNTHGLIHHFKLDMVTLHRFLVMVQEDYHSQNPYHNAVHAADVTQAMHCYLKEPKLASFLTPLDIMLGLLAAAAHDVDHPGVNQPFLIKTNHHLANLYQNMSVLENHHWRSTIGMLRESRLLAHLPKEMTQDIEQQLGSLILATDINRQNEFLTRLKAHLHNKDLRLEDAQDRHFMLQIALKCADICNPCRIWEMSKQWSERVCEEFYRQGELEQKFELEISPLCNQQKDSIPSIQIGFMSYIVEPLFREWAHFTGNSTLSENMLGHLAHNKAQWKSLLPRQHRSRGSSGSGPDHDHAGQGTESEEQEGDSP
Chain of High affinity cGMP-specific 3',5'-cyclic phosphodiesterase 9A (O76083 whole entry): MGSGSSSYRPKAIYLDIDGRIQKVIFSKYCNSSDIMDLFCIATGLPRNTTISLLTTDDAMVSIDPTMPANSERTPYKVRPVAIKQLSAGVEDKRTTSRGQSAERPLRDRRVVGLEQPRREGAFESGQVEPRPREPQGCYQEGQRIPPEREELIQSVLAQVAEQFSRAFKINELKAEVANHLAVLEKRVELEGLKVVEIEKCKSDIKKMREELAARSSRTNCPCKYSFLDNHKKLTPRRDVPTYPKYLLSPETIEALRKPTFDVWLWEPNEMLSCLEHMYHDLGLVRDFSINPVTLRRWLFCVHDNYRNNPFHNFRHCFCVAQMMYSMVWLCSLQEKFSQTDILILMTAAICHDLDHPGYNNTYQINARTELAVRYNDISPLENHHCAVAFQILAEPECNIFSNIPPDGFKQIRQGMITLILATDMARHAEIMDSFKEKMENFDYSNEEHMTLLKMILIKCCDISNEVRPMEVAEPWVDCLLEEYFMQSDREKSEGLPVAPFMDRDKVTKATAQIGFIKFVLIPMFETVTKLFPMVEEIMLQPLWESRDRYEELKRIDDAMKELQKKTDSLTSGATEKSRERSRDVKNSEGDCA
Chain of cGMP-dependent 3',5'-cyclic phosphodiesterase (O00408 whole entry): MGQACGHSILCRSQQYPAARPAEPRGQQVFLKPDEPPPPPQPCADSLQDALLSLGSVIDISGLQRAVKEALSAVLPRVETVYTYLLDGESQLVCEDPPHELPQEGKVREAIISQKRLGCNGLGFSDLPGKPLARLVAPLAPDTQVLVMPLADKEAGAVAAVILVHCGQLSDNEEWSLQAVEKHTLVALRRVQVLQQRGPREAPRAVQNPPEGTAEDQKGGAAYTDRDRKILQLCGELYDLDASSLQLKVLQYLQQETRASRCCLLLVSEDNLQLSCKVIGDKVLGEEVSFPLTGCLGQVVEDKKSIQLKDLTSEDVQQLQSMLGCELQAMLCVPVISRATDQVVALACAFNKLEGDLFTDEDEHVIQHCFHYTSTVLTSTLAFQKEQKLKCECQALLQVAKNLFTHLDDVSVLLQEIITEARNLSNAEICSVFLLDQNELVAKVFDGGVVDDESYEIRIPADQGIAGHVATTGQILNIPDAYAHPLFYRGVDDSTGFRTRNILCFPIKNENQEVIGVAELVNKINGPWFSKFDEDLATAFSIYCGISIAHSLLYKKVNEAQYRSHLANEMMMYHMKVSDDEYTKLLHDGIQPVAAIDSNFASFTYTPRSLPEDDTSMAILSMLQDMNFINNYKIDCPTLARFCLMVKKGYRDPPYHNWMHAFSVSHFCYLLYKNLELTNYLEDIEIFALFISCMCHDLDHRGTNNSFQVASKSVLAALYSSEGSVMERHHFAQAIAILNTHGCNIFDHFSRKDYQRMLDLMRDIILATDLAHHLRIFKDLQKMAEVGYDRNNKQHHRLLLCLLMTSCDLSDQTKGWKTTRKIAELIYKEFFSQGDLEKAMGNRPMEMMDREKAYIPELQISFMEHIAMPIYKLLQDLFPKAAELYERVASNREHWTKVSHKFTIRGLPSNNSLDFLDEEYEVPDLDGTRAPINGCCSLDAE

In turn, `Cc1nc(N)c2ccc(-c3nn(C)/c(=N/C4CCCCC4)s3)cc2n1` showed an Inhibition on Phosphodiesterase 7 [1] of 3.9 µM. On to `Cn1nc(-c2ccc(Cl)cc2)s/c1=N\C1CCCCC1`, for which the Inhibition on Phosphodiesterase 7 [1] turned out to be 1.5 µM.

Take `OCCN(CCO)c1nc(N2CCCCC2)c2nc(N(CCO)CCO)nc(N3CCCCC3)c2n1` [DIPYRIDAMOLE]: the inhibitory constant (Ki) at Phosphodiesterase 6 is 0.125 µM; at Phosphodiesterase 7 [2] it was 0.6 µM; in experiment [3] it was 9 µM. As for `CCCCCC[C@@H]([C@@H](C)O)n1cnc2c(N)ncnc21` [EHNA], the Ki in experiment [4] came to 1 µM. That is a single-digit micromolar value. On Phosphodiesterase 7 [2], `CC(C)Cn1c(=O)n(C)c(=O)c2nc[nH]c21` [ISOBUTYLMETHYLXANTHINE] came in with a Ki of 4 µM. In the case of `CCOC(=O)C1=C[C@]2(CC)CCCN3CCc4c(n1c1ccccc41)[C@@H]32` [VINPOCETINE], the Ki at Phosphodiesterase 1 was found to be 14 µM. In other words, the double-digit micromolar range. For the compound `CCCOc1ccccc1-c1nc2[nH]nnc2c(=O)[nH]1` [ZAPRINAST], the results for the Ki (at Phosphodiesterase 6; in experiment [5]) were 0.4 µM and 35 µM, respectively. The compound also came in with an IC50 in experiment [6] of 22 µM.
